Read-outs that look alike come from different tables or passages of the source.
Tests used:
PI3Kδ (p110δ/p85α) = PI3Kδ (p110δ/p85α) (Homo sapiens (Human), UniProt O00329); assay: PI3Kδ scintillation proximity assay; assay type: biochemical; settings: 20 μM ATP
Description: [γ-^33P]ATP (10 mCi/mL) was purchased from Perking Elmer (Waltham, Mass.). […] PI3Kδ (p110δ/p85α) was purchased from Millipore (Bedford, Mass.). ATP, MgCl2, DTT, EDTA, MOPS and CHAPS were purchased from Sigma-Aldrich (St. Louis, Mo.). Wheat Germ Agglutinin (WGA) YSi SPA Scintillation Beads was purchased from GE healthcare life sciences (Piscataway, N.J.). The kinase reaction was conducted in polystyrene 384-well matrix white plate from Thermo Fisher Scientific in a final volume of 25 μL. Inhibitors were first diluted serially in DMSO and added to the plate wells before the addition of other reaction components. The final concentration of DMSO in the assay was 0.5%. […] Reactions were initiated by the addition of ATP, the final reaction mixture consisted of 20 μM PIP2, 20 μM ATP, 0.2 μCi [γ-^33P] ATP, 4 nM PI3Kδ. Reactions were incubated for 210 min and terminated by the addition of 40 μL SPA beads suspended in quench buffer: 150 mM potassium phosphate pH 8.0, 20% glycerol. 25 mM EDTA, 400 μM ATP. The final concentration of SPA beads was 1.0 mg/mL. After the plate sealing, plates were shaken overnight at room temperature and centrifuged at 1800 rpm for 10 minutes, the radioactivity of the product was determined by scintillation counting on Topcount (Perking Elmer).

Pfeiffer cells [1] = assay: Cell proliferation assay in Pfeiffer cells; assay type: cell-based, human; settings: for IC50: Homo sapiens, Pfeiffer, 72 h, Pfeiffer cells, 3 days, read-out: IC50, cell growth
Description: Diffuse large B cell lymphoma cells were seeded at 2000 cell/well in 96 well culture plates in the absence or presence of 10 ng/ml IL10. Compounds were added to these cells after dilution in DMSO first, followed by dilution in culture medium (4× concentration). The cells were cultured in an incubator for 3 days with 5% CO2. Cell proliferation was assessed using the Cell titer-glow assay (Promega, Madison, Wis.).

Pfeiffer cells [2] = assay: Western blot analysis of Pfeiffer cells; assay type: cell-based, human; settings: 4 hours, then IL-10 for 15 minutes
Description: The following materials and methods were used in the Western blot analysis infra. Cells (5 million) were lysed in a 300 μl volume of lysis buffer. Soluble fractions were collected by centrifugation. 25 μl of cell lysate were loaded into Tris-Glycine polyacrylamide gels and subjected to electrophoresis. The proteins were transferred into nitrocellulose membrane and probed with antibodies from Cell Signaling Technology for the following proteins: phospho-Stat3 Y705, phospho-Akt 5473, pim1, pim2, pim3, c-myc, phospho-p70S6K, phosho-S6, phospho-Bad S112 and actin.
IL6 and IL10 promote cell survival through the expression of Pim2, which is dependent on JAK1 activity.
Extracts were analyzed by Western blot for pAKT and pSTAT3.

Pfeiffer cells [3] = assay: Annexin-V staining of Pfeiffer cells (apoptosis); assay type: cell-based, human; settings: 3 days, 10% FBS + IL10, Compound 16 at 1 μM
[4] = target: human JAK1 (a.a. 837-1142) (Homo sapiens, UniProt P23458); assay: In vitro JAK kinase assay (HTRF), JAK1; assay type: biochemical; settings: 1 mM ATP; read-out: JAK1 IC50
Chain of human JAK1 (a.a. 837-1142) (P23458 whole entry, looked up): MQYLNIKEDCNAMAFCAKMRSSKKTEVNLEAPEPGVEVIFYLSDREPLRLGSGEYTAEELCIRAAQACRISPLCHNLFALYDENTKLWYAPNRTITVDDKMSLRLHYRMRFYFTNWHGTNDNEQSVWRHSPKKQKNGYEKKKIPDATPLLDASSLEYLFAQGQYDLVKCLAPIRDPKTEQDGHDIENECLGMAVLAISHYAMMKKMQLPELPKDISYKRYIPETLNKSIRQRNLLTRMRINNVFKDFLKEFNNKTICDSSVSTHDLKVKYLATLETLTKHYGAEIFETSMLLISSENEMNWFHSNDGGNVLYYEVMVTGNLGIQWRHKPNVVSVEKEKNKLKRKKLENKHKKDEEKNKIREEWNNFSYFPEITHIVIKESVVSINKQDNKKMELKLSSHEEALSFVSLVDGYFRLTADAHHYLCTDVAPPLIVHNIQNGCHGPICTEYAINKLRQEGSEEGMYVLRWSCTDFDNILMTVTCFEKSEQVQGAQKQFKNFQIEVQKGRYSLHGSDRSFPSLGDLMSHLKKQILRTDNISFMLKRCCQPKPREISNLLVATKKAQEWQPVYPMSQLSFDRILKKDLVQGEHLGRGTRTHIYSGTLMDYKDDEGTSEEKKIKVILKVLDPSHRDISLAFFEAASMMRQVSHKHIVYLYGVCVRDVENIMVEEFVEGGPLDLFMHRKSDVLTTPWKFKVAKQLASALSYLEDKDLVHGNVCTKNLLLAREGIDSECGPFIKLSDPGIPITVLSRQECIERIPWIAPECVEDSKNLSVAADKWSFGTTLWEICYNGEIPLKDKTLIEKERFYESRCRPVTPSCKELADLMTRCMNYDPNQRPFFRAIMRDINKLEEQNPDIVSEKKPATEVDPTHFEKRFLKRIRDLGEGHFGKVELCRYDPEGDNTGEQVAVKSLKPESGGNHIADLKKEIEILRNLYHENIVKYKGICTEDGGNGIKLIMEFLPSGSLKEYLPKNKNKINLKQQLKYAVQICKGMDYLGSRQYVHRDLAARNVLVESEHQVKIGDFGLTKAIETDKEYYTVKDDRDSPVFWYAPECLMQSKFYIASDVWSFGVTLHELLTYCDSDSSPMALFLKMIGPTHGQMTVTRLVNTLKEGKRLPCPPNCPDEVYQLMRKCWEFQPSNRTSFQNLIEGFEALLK

[5] = target: human JAK2 (a.a. 828-1132) (Homo sapiens (Human), UniProt O60674); assay: In vitro JAK kinase assay (HTRF), JAK2; assay type: biochemical; settings: IC50 ratio, 1 mM ATP
Chain of human JAK2 (a.a. 828-1132) (O60674 828-1132): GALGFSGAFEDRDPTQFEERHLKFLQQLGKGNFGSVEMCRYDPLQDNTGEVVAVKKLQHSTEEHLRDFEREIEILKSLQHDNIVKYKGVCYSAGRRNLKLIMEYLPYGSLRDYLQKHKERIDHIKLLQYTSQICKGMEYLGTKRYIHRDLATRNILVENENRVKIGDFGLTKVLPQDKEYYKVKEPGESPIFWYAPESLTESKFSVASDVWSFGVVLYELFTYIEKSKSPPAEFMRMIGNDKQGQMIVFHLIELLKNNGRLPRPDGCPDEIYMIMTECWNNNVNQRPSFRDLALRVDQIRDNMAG

[6] = system: Pfeiffer human tumor xenograft; assay: Pfeiffer model of lymphoma (human tumor xenograft in SCID mice); assay type: in vivo, mouse
Description: Female SCID mice, (5 to 8 weeks of age, Charles River Laboratories, Wilmington, Mass.) were inoculated with 1×10^7 tumor cells (Pfeiffer, ATCC #CRL-2632, Manassas, Va.) and matrigel (BD Biosciences #354234) in 0.2 mL sterile saline. The inoculation was performed subcutaneously on the flank. Tumor tissue fragments (approximately 3 mm×3 mm) were collected 3 to 6 weeks after the inoculation of cultured cells and implanted subcutaneously in lieu of cellular inoculation. Tissue fragments were implanted as solid pieces using blunt-tip forceps. The treatment of tumor bearing mice was started 15 to 25 days after tumor inoculation, depending upon the tumor size. Animals were sorted to obtain roughly equivalent mean tumor volumes in each group. Minimum mean tumor volume in all groups was 150 mm3 on the first day of treatment and groups consisted of 7 animals. Experimental therapeutic agent, Example 347, was administered to mice orally (PO). Treatment frequency was 2 times daily for a minimum of 14 days for efficacy. The size of subcutaneous tumors was measured 2 to 3 times weekly using a digital caliper. The tumor volume was calculated by measuring the tumor in 2 dimensions and utilizing the equation: Volume=[Length×(Width2)]/2; where the larger number was length, and the smaller number width. If multiple tumors were formed, the final volume was the sum of the individual tumors subject to the same equation: eg, 2 tumors; Volume={[L1×(W1)2]/2}+{[L2×(W2)2]/2}. Effects on tumor growth were reported as percent tumor growth inhibition (% TGI). Percent TGI was calculated with the equation: (1−(Tx vol./control vol.))*100, where control volume was the vehicle or untreated tumor volume on a given day, and Tx volume was any treatment group tumor volume on that same day. Statistical differences between treatment and vehicle controls were assessed using ANOVA: Single Factor test.
Compound 32c (Table 2 supra) was evaluated as a single agent in the Pfeiffer human tumor xenograft model of diffuse large B-cell lymphoma, a subtype of NHL. […] Therefore, a tumor model was established based on subcutaneous inoculation of tumor cells into immune compromised SCID mice and tumor-bearing mice received twice daily oral doses of vehicle or Compound 32c at 0.3, 1, 3, or 10 mg/kg for 14 days.

[7] = 10% FBS + IL10, ATP readout, Compound 16 at 1 μM in combination

Chain of PI3Kδ (p110δ/p85α) (O00329 whole entry): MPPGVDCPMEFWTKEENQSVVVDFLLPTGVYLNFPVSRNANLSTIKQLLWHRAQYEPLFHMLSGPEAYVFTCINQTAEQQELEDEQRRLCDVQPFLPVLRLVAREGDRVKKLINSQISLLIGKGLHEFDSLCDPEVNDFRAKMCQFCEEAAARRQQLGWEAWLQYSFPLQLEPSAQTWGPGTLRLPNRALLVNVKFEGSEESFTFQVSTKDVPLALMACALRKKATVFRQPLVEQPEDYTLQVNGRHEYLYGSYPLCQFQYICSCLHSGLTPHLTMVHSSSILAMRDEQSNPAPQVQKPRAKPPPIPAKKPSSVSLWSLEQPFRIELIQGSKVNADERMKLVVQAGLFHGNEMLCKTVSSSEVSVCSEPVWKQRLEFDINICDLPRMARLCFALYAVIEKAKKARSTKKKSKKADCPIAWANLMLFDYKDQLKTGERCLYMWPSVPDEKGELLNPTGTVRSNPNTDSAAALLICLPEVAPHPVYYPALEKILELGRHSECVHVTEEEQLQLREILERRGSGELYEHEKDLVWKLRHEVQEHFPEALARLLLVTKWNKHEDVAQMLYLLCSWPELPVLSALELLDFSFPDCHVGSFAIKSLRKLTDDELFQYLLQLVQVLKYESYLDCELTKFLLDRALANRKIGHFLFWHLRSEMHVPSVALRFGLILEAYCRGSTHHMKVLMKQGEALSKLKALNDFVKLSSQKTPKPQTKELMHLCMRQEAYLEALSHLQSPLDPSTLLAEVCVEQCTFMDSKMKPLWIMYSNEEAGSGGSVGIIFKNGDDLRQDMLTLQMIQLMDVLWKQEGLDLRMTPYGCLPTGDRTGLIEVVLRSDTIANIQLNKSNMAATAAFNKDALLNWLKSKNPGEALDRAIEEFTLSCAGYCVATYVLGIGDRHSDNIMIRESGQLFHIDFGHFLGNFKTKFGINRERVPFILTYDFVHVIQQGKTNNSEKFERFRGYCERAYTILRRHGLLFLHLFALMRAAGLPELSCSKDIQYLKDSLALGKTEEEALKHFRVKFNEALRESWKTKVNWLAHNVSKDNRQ
Chain of PI3Kδ (p110δ/p85α) (P27986 whole entry partner): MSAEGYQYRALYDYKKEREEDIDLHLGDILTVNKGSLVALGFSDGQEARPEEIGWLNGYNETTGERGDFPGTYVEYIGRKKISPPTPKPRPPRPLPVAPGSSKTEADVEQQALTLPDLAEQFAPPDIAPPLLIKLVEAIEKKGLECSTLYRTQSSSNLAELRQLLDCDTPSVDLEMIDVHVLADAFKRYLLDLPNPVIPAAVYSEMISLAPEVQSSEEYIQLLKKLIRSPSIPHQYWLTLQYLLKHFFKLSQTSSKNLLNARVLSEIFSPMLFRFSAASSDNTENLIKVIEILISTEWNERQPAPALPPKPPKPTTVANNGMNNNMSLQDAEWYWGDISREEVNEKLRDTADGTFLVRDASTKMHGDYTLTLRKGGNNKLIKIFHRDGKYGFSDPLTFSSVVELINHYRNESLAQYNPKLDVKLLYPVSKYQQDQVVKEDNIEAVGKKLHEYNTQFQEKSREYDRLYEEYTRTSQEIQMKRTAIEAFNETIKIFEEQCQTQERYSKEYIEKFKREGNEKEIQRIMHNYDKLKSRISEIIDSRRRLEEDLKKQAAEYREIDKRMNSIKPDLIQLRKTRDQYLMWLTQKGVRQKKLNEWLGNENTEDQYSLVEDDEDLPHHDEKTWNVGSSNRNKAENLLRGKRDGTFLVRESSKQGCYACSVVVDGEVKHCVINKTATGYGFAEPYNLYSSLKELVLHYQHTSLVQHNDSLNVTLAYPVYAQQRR

| SMILES | IC50 (PI3Kδ (p110δ/p85α)) | IC50 (Pfeiffer cells [1]; [7]) | STAT3 phosphorylation (Pfeiffer cells [2]) | pAKT (Pfeiffer cells [2]) | apoptosis (Annexin-V staining) (Pfeiffer cells [3]) | other results |
| --- | --- | --- | --- | --- | --- | --- |
| CCOc1c(C(C)n2nc(C)c3c(N)ncnc32)cc(C)c(C#N)c1-c1ccc(C(=O)N(C)C)nc1 (stereo not shown) [Compound 31, 5-{3-[1-(4-amino-3-methyl-1H-pyrazolo[3,4-d]pyrimidin-1-yl)ethyl]-6-cyano-2-ethoxy-5-methylphenyl}-N,N-dimethylpyridine-2-carboxamide] | < 50 nM |  |  |  |  |  |
| Cc1csc2nc([C@H](C)Nc3ncnc4[nH]cnc34)c(-c3cccc(F)c3)c(=O)n12 [Compound 28, (S)-7-(1-(9H-purin-6-ylamino)ethyl)-6-(3-fluorophenyl)-3-methyl-5H-thiazolo[3,2-a]pyrimidin-5-one] |  | 6360 nM | did not | complete inhibition | neither agent alone had a significant effect | IC50 (Pfeiffer cells [1]; -IL-10, ATP readout): 670 nM |
| COc1c(C(C)n2nc(C)c3c(N)ncnc32)cc(Cl)c(C#N)c1C1CN(CCO)C1 (stereo not shown) [Compound 30, 4-[1-(4-amino-3-methyl-1H-pyrazolo[3,4-d]pyrimidin-1-yl)ethyl]-6-chloro-2-[1-(2-hydroxyethyl)azetidin-3-yl]-3-methoxybenzonitrile] | < 50 nM |  |  |  |  |  |
| C[C@H](NC(=O)c1cc(F)c(N2CC(CC#N)(n3cc(-c4ncnc5[nH]ccc45)cn3)C2)cc1F)C(F)(F)F [Compound 16, 4-{3-(cyanomethyl)-3-[4-(7H-pyrrolo[2,3-d]pyrimidin-4-yl)-1H-pyrazol-1-yl]azetidin-1-yl}-2,5-difluoro-N-[(1S)-2,2,2-trifluoro-1-methylethyl]benzamide] |  | > 1000 nM | inhibition | no effect | neither agent alone had a significant effect | IC50 [4]: < 10 nM; JAK2/JAK1 [5]: >10 |
| CCOc1c(C(C)n2nc(C)c3c(N)ncnc32)cc(Cl)c(F)c1C1CNC(=O)C1 (stereo not shown) [Compound 32c, 4-{3-[1-(4-amino-3-methyl-1H-pyrazolo[3,4-d]pyrimidin-1-yl)ethyl]-5-chloro-2-ethoxy-6-fluorophenyl}pyrrolidin-2-one] |  |  |  |  |  | percent tumor growth inhibition ([6]; 0.3 mg/kg oral twice daily for 14 days): 22%; percent tumor growth inhibition ([6]; 1 mg/kg oral twice daily for 14 days): 24%; percent tumor growth inhibition ([6]; 3 mg/kg oral twice daily for 14 days): 36%; percent tumor growth inhibition ([6]; 10 mg/kg oral twice daily for 14 days): 58%; anti-proliferative effects on Pfeiffer cancer cells (Pfeiffer cells [1]; in vitro): sensitive |
| COc1c(C(C)n2nc(C)c3c(N)ncnc32)cc(Cl)c(C#N)c1C1CN(C[C@H](C)O)C1 (stereo partly drawn) [Compound 29, 4-[1-(4-amino-3-methyl-1H-pyrazolo[3,4-d]pyrimidin-1-yl)ethyl]-6-chloro-2-{1-[(2S)-2-hydroxypropyl]azetidin-3-yl}-3-methoxybenzonitrile] | < 50 nM |  |  |  |  |  |
